Values quoted from earlier work, collected in PMC4457351 (Journal of Visualized Experiments : JoVE, 2014).

Conditions: read-out: Kd(calcium)

Kd: ~345 nM
Substance: Fluo-4
